Reference: US20150224202A1, “FORMULATIONS AND USES FOR MICROPARTICLE DELIVERY OF ZINC PROTOPORPHYRINS” (priority 2014, published 2015)

Tests used:
newborn rhesus monkeys = experiment: Hemolytic jaundice model, newborn rhesus monkeys treated with heat-damaged erythrocytes; format: in vivo, rhesus monkey
Excerpt: However, ZnPP has been troublesome to maintain in solution and is not orally absorbed, requiring parenteral administration.

3-day-old mouse pups = experiment: Effect of light exposure on metalloporphyrin-treated newborn mice (chemical toxicity and phototoxicity); conditions: for chemical toxicity / phototoxicity, summary: 3.75 to 30.0 μmol/kg BW IP; for LD50 (50% lethal dose), exposed to light: fluorescent light (2 cool white, 1 blue tube) 3 hours
Description: FIG. 2 includes three panels ((A), (B), and (C)), showing the experimental setup for phototoxicity studies. 3-day-old pups (magnified in panel (A)) were given vehicle or Mp IP at doses ranging from 3.75 to 30 μmol/kg body weight (BW) and then exposed for 3 hours to fluorescent light consisting of 2 cool white and 1 blue tubes (as shown in panel (B)) emitting an irradiance of 35.0±1.0 μW/cm^2/nm as measured by a BiliBlanket II Meter (as depicted in panel (C)).
Effect of light exposure on metalloporphyrin-treated newborn mice. […] Pups were either kept in the dark (controls) or exposed to fluorescent light composed of two cool white tubes (F20T12cW) and one blue (TL20W/52) tube for 3 hours (FIG. 2).

heme oxygenase (HO) = experiment: HO activity inhibition in ZnBG-treated 3-day-old pups (FIG. 3); format: in vivo, mouse
[1] = after exposure to fluorescent light

Compound	tissue targeting of HO inhibition (newborn rhesus monkeys; 40 μmol/kg BW SC)	time to reduce carboxyhemoglobin and total bilirubin levels to baseline levels (newborn rhesus monkeys; 40 μmol/kg BW subcutaneously (SC))	chemical toxicity / phototoxicity, summary (3-day-old mouse pups)	LD50 (50% lethal dose), exposed to light (3-day-old mouse pups; IP, 3-day-old mouse pups)	LD50 (50% lethal dose), kept in the dark (3-day-old mouse pups; IP, 3-day-old mouse pups, kept in the dark)	lethality under blue LED light (3-day-old mouse pups; 30 μmol/kg BW, blue light-emitting diode (LED) light)	chemical toxicity, kept in the dark (3-day-old mouse pups; 30 μmol/kg, kept in the dark)	doses at which gross histologic skin changes developed (3-day-old mouse pups; 6 days after light exposure)	aspartate aminotransaminase (AST) levels (3-day-old mouse pups; [1])	body weight after exposure to light (3-day-old mouse pups; [1])	creatine kinase (CK-MB) levels (3-day-old mouse pups; [1])	liver antioxidant capacities (3-day-old mouse pups; [1])	inhibited HO activity (heme oxygenase (HO); 3.75 μmol ZnBG/kg BW)	doses retaining maximal HO inhibitory potency without photosensitizing effects (heme oxygenase (HO); FIG. 3)
C=CC1=C(C)c2cc3[n-]c(cc4nc(cc5[n-]c(cc1n2)c(C)c5C=C)C(C)=C4CCC(=O)O)c(CCC(=O)O)c3C.[Zn+2] [ZnPP, Zinc protoporphyrin]	targeted to the liver and spleen, without affecting the kidney or brain	≤ 24 h												
chromium mesoporphyrin [CrMP]			has a chemical toxicity, but no phototoxicity	23.0 µmol/kg	21.5 µmol/kg									
zinc bis glycol porphyrin [ZnBG]			has no chemical toxicity, but a phototoxicity that is dependent on the light source	19.5 µmol/kg		no lethality was observed	did not show any chemical toxicity	> 7.5 μmol/kg BW	increases	significant weight loss	increases	decreases	up to 75%	< 3.75 μmol/kg BW
